Data from US9562031B1, “Phenethyldihydrobenzodioxolones and methods of use” (Sequoia Sciences, Inc., priority 2015, dated 2017).
Counter-ions that a name gives are not always drawn.

Experiments:
NCI-H460 or M14 cells = assay: in vitro antiproliferation assay (cell line not stated for the salt); type: cell-based; conditions: Homo sapiens, HCl salt
Experimental: For the antiproliferation assay, NCI-H460 (large cell lung carcinoma) or M14 (amelanotic melanoma) cells were grown in RPMI-1640 with 10% FBS supplemented with L-glutamine and HEPES. Cells were seeded into 96-well plates at 5×10^2 to 5×10^4 cells/well and allowed to adhere overnight; the medium was then removed. A stock solution of test compound in DMSO was diluted in medium to generate a series of working solutions. Aliquots (100 μl) of the working solutions were then added to the appropriate test wells to expose cells to the final concentrations of compound in a total volume of 100 μl. Seven different concentrations were tested, with 2-5 wells per concentration. Camptothecin was used as a positive control; wells containing vehicle without compound were used as negative controls. Plates were kept for 72 h in a 37° C., 5% CO2 incubator. After incubation, viable cells were detected with the CELLTITER 96 AQueous Non-Radioactive Cell Proliferation Assay (Promega), and IC50 values were determined using GraphPad Prism 5 software.
As stated herein, the invention also includes compounds and their salts. The HCl salt of compound 66 was prepared, and the salt retained activity in the in vitro antiproliferation assay (IC50 5-7 μM).

NCI-H460 cells = assay: NCI-60 panel antiproliferation, NCI-H460; type: cell-based, human; conditions: NCI 60-cell panel
Experimental: (§1) Bifidenone and Compound 37 were tested for antiproliferation activity against the NCI-60 panel of cancer cell lines. COMPARE analysis was then conducted to compare the activity “fingerprint” of bifidenone to those of known classes of compounds (Zhou, B.-N., Hoch, J. M., Johnson, R. K., Mattern, M. R., Eng, W.-K., Ma, J., Hecht, S. M., Newman, D. J., Kingston, D. G. I., 2000. Use of COMPARE Analysis to Discover New Natural Product Drugs: Isolation of Camptothecin and 9-Methoxycamptothecin from a New Source. Journal of Natural Products 63, 1273-1276.).

SK-Mel-2 cells = assay: NCI-60 panel antiproliferation, SK-MEL-2; type: cell-based, human; conditions: NCI 60-cell panel
Experimental: as §1

LOX IMVI cells = assay: NCI-60 panel antiproliferation, LOX IMVI; type: cell-based, human; conditions: NCI 60-cell panel
Experimental: as §1

HCT-116 cells = assay: NCI-60 panel antiproliferation, HCT-116; type: cell-based, human; conditions: NCI 60-cell panel
Experimental: as §1

MDA-MB-468 cells = assay: NCI-60 panel antiproliferation, MDA-MB-468; type: cell-based, human; conditions: NCI 60-cell panel
Experimental: as §1

U251 cells = assay: NCI-60 panel antiproliferation, U251; type: cell-based, human; conditions: NCI 60-cell panel
Experimental: as §1

SNB-19 cells = assay: NCI-60 panel antiproliferation, SNB-19; type: cell-based, human; conditions: NCI 60-cell panel
Experimental: as §1

NCI-H522 cells = assay: NCI-60 panel antiproliferation, NCI-H522; type: cell-based, human; conditions: NCI 60-cell panel
Experimental: as §1

NCI-H226 cells = assay: NCI-60 panel antiproliferation, NCI-H226; type: cell-based, human; conditions: NCI 60-cell panel
Experimental: as §1

SF-295 cells = assay: NCI-60 panel antiproliferation, SF-295; type: cell-based, human; conditions: NCI 60-cell panel
Experimental: as §1

COLO205 cells = assay: NCI-60 panel antiproliferation, COLO205; type: cell-based, human; conditions: NCI 60-cell panel
Experimental: as §1

UO-31 cells = assay: NCI-60 panel antiproliferation, UO-31; type: cell-based, human; conditions: NCI 60-cell panel
Experimental: as §1

HCT-15 cells = assay: NCI-60 panel antiproliferation, HCT-15; type: cell-based, human; conditions: NCI 60-cell panel
Experimental: as §1

T-47D cells = assay: NCI-60 panel antiproliferation, T-47D; type: cell-based, human; conditions: NCI 60-cell panel
Experimental: as §1

SK-MEL-28 cells = assay: NCI-60 panel antiproliferation, SK-MEL-28; type: cell-based, human; conditions: NCI 60-cell panel
Experimental: as §1

OVCAR-8 cells = assay: NCI-60 panel antiproliferation, OVCAR-8; type: cell-based, human; conditions: NCI 60-cell panel
Experimental: as §1

M14 cells = assay: NCI-60 panel antiproliferation, M14; type: cell-based, human; conditions: NCI 60-cell panel
Experimental: as §1

CCRF-CEM cells = assay: NCI-60 panel antiproliferation, CCRF-CEM; type: cell-based, human; conditions: NCI 60-cell panel
Experimental: as §1

EKVX cells = assay: NCI-60 panel antiproliferation, EKVX; type: cell-based, human; conditions: NCI 60-cell panel
Experimental: as §1

ACHN cells = assay: NCI-60 panel antiproliferation, ACHN; type: cell-based, human; conditions: NCI 60-cell panel
Experimental: as §1

KM12 cells = assay: NCI-60 panel antiproliferation, KM12; type: cell-based, human; conditions: NCI 60-cell panel
Experimental: as §1

Caki-1 cells = assay: NCI-60 panel antiproliferation, Caki-1; type: cell-based, human; conditions: NCI 60-cell panel
Experimental: as §1

OVCAR-3 cells = assay: NCI-60 panel antiproliferation, OVCAR-3; type: cell-based, human; conditions: NCI 60-cell panel
Experimental: as §1

BT-549 cells = assay: NCI-60 panel antiproliferation, BT-549; type: cell-based, human; conditions: NCI 60-cell panel
Experimental: as §1

NCI-H322M cells = assay: NCI-60 panel antiproliferation, NCI-H322M; type: cell-based, human; conditions: NCI 60-cell panel
Experimental: as §1

HT29 cells = assay: NCI-60 panel antiproliferation, HT29; type: cell-based, human; conditions: NCI 60-cell panel
Experimental: as §1

UACC-62 cells = assay: NCI-60 panel antiproliferation, UACC-62; type: cell-based, human; conditions: NCI 60-cell panel
Experimental: as §1

MDA-MB-435 cells = assay: NCI-60 panel antiproliferation, MDA-MB-435; type: cell-based, human; conditions: NCI 60-cell panel
Experimental: as §1

SF-539 cells = assay: NCI-60 panel antiproliferation, SF-539; type: cell-based, human; conditions: NCI 60-cell panel
Experimental: as §1

OVCAR-5 cells = assay: NCI-60 panel antiproliferation, OVCAR-5; type: cell-based, human; conditions: NCI 60-cell panel
Experimental: as §1

UACC-257 cells = assay: NCI-60 panel antiproliferation, UACC-257; type: cell-based, human; conditions: NCI 60-cell panel
Experimental: as §1

HCC-2998 cells = assay: NCI-60 panel antiproliferation, HCC-2998; type: cell-based, human; conditions: NCI 60-cell panel
Experimental: as §1

SN12C cells = assay: NCI-60 panel antiproliferation, SN12C; type: cell-based, human; conditions: NCI 60-cell panel
Experimental: as §1

SK-OV-3 cells = assay: NCI-60 panel antiproliferation, SK-OV-3; type: cell-based, human; conditions: NCI 60-cell panel
Experimental: as §1

A549 cells = assay: NCI-60 panel antiproliferation, A549; type: cell-based, human; conditions: NCI 60-cell panel
Experimental: as §1

DU-145 cells = assay: NCI-60 panel antiproliferation, DU-145; type: cell-based, human; conditions: NCI 60-cell panel
Experimental: as §1

K-562 cells = assay: NCI-60 panel antiproliferation, K-562; type: cell-based, human; conditions: NCI 60-cell panel
Experimental: as §1

HL-60 cells = assay: NCI-60 panel antiproliferation, HL-60; type: cell-based, human; conditions: NCI 60-cell panel
Experimental: as §1

A498 cells = assay: NCI-60 panel antiproliferation, A498; type: cell-based, human; conditions: NCI 60-cell panel
Experimental: as §1

SNB-75 cells = assay: NCI-60 panel antiproliferation, SNB-75; type: cell-based, human; conditions: NCI 60-cell panel
Experimental: as §1

NCI-H23 cells = assay: NCI-60 panel antiproliferation, NCI-H23; type: cell-based, human; conditions: NCI 60-cell panel
Experimental: as §1

SK-Mel-5 cells = assay: NCI-60 panel antiproliferation, SK-MEL-5; type: cell-based, human; conditions: NCI 60-cell panel
Experimental: as §1

786-0 cells = assay: NCI-60 panel antiproliferation, 786-0; type: cell-based, human; conditions: NCI 60-cell panel
Experimental: as §1

Hs578T cells = assay: NCI-60 panel antiproliferation, Hs578T; type: cell-based, human; conditions: NCI 60-cell panel
Experimental: as §1

SF-268 cells = assay: NCI-60 panel antiproliferation, SF-268; type: cell-based, human; conditions: NCI 60-cell panel
Experimental: as §1

TK-10 cells = assay: NCI-60 panel antiproliferation, TK-10; type: cell-based, human; conditions: NCI 60-cell panel
Experimental: as §1

NCI-ADR/RES cells = assay: NCI-60 panel antiproliferation, NCI-ADR/RES; type: cell-based, human; conditions: NCI 60-cell panel
Experimental: as §1

IGR-OV1 cells = assay: NCI-60 panel antiproliferation, IGR-OV1; type: cell-based, human; conditions: NCI 60-cell panel
Experimental: as §1

RXF-393 cells = assay: NCI-60 panel antiproliferation, RXF-393; type: cell-based, human; conditions: NCI 60-cell panel
Experimental: as §1

HOP-92 cells = assay: NCI-60 panel antiproliferation, HOP-92; type: cell-based, human; conditions: NCI 60-cell panel
Experimental: as §1

SW-620 cells = assay: NCI-60 panel antiproliferation, SW-620; type: cell-based, human; conditions: NCI 60-cell panel
Experimental: as §1

MDA-MB-231 cells = assay: NCI-60 panel antiproliferation, MDA-MB-231; type: cell-based, human; conditions: NCI 60-cell panel
Experimental: as §1

RPMI-8226 cells = assay: NCI-60 panel antiproliferation, RPMI-8226; type: cell-based, human; conditions: NCI 60-cell panel
Experimental: as §1

OVCAR-4 cells = assay: NCI-60 panel antiproliferation, OVCAR-4; type: cell-based, human; conditions: NCI 60-cell panel
Experimental: as §1

MOLT-4 cells = assay: NCI-60 panel antiproliferation, MOLT-4; type: cell-based, human; conditions: NCI 60-cell panel
Experimental: as §1

HOP-62 cells = assay: NCI-60 panel antiproliferation, HOP-62; type: cell-based, human; conditions: NCI 60-cell panel
Experimental: as §1

MALME-3M cells = assay: NCI-60 panel antiproliferation, MALME-3M; type: cell-based, human; conditions: NCI 60-cell panel
Experimental: as §1

SR cells = assay: NCI-60 panel antiproliferation, SR; type: cell-based, human; conditions: NCI 60-cell panel
Experimental: as §1

PC-3 cells = assay: NCI-60 panel antiproliferation, PC-3; type: cell-based, human; conditions: NCI 60-cell panel
Experimental: as §1

MCF-7 cells = assay: NCI-60 panel antiproliferation, MCF-7; type: cell-based, human; conditions: NCI 60-cell panel
Experimental: as §1

## COc1cc(F)c(C[C@H](C)[C@]23C[C@H](Cc4ccncc4)C(=O)C=C2OCO3)cc1O [HCl salt of compound 66, (6S,7aR)-7a-((S)-1-(2-fluoro-5-hydroxy-4-methoxyphenyl)propan-2-yl)-6-(pyridin-4-ylmethyl)-7,7a-dihydrobenzo[d][1,3]dioxol-5(6H)-one hydrochloride]
NCI-H460 or M14 cells
  IC50: 5000 to 7000 nM

## C=CC[C@H]1C[C@]2([C@@H](C)Cc3ccc(OC)c(OC)c3)OCOC2=CC1=O [bifidenone, Bifidenone]
NCI-H460 cells
  IC50: 320 nM
SK-Mel-2 cells
  IC50: 130 nM
LOX IMVI cells
  IC50: 390 nM
HCT-116 cells
  IC50: 490 nM
MDA-MB-468 cells
  IC50: 300 nM
U251 cells
  IC50: 610 nM
SNB-19 cells
  IC50: 300 nM
NCI-H522 cells
  IC50: 150 nM
NCI-H226 cells
  IC50: 810 nM
SF-295 cells
  IC50: 410 nM
COLO205 cells
  IC50: 400 nM
UO-31 cells
  IC50: 570 nM
HCT-15 cells
  IC50: 230 nM
T-47D cells
  IC50: 250 nM
SK-MEL-28 cells
  IC50: 130 nM
OVCAR-8 cells
  IC50: 470 nM
M14 cells
  IC50: 200 nM
CCRF-CEM cells
  IC50: 150 nM
EKVX cells
  IC50: 280 nM
ACHN cells
  IC50: 850 nM
KM12 cells
  IC50: 320 nM
Caki-1 cells
  IC50: 100 nM
OVCAR-3 cells
  IC50: 170 nM
BT-549 cells
  IC50: 180 nM
NCI-H322M cells
  IC50: 460 nM
HT29 cells
  IC50: 310 nM
UACC-62 cells
  IC50: 140 nM
MDA-MB-435 cells
  IC50: 70 nM
SF-539 cells
  IC50: 260 nM
OVCAR-5 cells
  IC50: 520 nM
UACC-257 cells
  IC50: 160 nM
HCC-2998 cells
  IC50: 1410 nM
SN12C cells
  IC50: 330 nM
SK-OV-3 cells
  IC50: 270 nM
A549 cells
  IC50: 260 nM
DU-145 cells
  IC50: 840 nM
K-562 cells
  IC50: 180 nM
HL-60 cells
  IC50: 120 nM
A498 cells
  IC50: 460 nM
SNB-75 cells
  IC50: 270 nM
NCI-H23 cells
  IC50: 610 nM
SK-Mel-5 cells
  IC50: 250 nM
786-0 cells
  IC50: 320 nM
Hs578T cells
  IC50: 210 nM
SF-268 cells
  IC50: 220 nM
TK-10 cells
  IC50: 330 nM
NCI-ADR/RES cells
  IC50: 170 nM
IGR-OV1 cells
  IC50: 420 nM
RXF-393 cells
  IC50: 780 nM
HOP-92 cells
  IC50: 240 nM
SW-620 cells
  IC50: 130 nM
MDA-MB-231 cells
  IC50: 260 nM
RPMI-8226 cells
  IC50: 250 nM
OVCAR-4 cells
  IC50: 290 nM
MOLT-4 cells
  IC50: 170 nM
HOP-62 cells
  IC50: 320 nM
MALME-3M cells
  IC50: 90 nM
SR cells
  IC50: 80 nM
PC-3 cells
  IC50: 190 nM
MCF-7 cells
  IC50: 170 nM
